ChEMBL document CHEMBL1201862, “PubChem BioAssay data set” (2004)
Activity calls are given as the source filed them.

Columns and labels:
[1] = HepG2 cell cytotoxicity, dose response, cytotoxicity control for Shn3 inhibitor project, CellTiter-Glo, cherry-picked (AID 624134); format: functional, cell-based
INS1 = assay: beta cell apoptosis inhibitors, cytokine rescue, dose response, luminescence, retest (AID 449756); format: functional, cell-based; details: Rattus norvegicus;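 note: cell death triggered by IL-1 beta plus TNF-alpha plus IFN-gamma mixture; protective hits raise ATP signal compared with cytokine alone wells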
[2] = biological target: T1, COUP transcription factor 2 (Homo sapiens, UniProt P24468); assay: Luminescence-based cell-based high throughput dose response assay to identify inhibitors of COUP-TFII (NR2F2).; format: functional;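 note: HEK293 cells transiently cotransfected with COUP-TFII expression vector and reporter; luciferase reporter luminescence driven by COUP-TFII from the pX2-168 reporter plasmid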
T1 sequence (P24468 whole entry): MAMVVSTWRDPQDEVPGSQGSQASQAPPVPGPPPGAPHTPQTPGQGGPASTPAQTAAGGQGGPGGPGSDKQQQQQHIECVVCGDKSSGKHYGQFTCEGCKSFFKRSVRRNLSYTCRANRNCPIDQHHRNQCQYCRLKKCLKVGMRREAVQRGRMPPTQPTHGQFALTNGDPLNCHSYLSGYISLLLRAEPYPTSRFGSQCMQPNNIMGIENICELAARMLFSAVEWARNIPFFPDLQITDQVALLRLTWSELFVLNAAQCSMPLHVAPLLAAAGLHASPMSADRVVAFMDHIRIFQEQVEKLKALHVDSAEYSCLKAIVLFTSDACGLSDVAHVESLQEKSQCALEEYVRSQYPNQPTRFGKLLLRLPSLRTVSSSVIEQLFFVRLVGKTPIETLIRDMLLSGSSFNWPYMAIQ

[3] = control 3'UTR Renilla luciferase suppression, dose response, counter-screen for Shn3 inhibitor project, cell-based, Clone20-Shn3RL, cherry-picked (AID 624133); format: functional
[4] = Shn3 3'UTR reporter inhibitors, dose response, cell-based, Clone20 osteoblasts, firefly luciferase, cherry-picked (AID 624132); format: functional;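 note: firefly luciferase luminescence from reporter carrying the Shn3 3'UTR in osteoblasts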
Galanin receptor type 2 = Galanin receptor type 2 (Homo sapiens, UniProt O43603); assay: Dose Response cell-based high-throughput screening assay to identify antagonists of galanin receptor 2 (GALR2). [Related pubchem assays: 828, 866 ]; format: functional
Ion channel NompC = Ion channel NompC (Danio rerio, UniProt Q7T1G6); assay: Fluorescence counterscreen assay for TRPML3 agonists: dose response cell-based high-throughput screening assay to identify agonists of the transient receptor potential channel N1 (TRPN1). [Related pubchem assays: 1526, 1424, 1448 ]; format: functional
H9c2 = assay: cells; format: functional, cell-based; details: Rattus norvegicus, H9c2, Myocardium;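 note: confirmatory concentration-response retest of ultra-high-throughput screening hits for modulation of myocardial damage; cell death induced by hydrogen peroxide oxidative stress; compound pretreatment for 60 min then peroxide exposure for 2 h; potency is for protecting the cells against peroxide damage rather than for killing them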
Mucolipin-3 = Mucolipin-3 (Homo sapiens, UniProt Q8TDD5); assay: Dose response cell-based high-throughput screening assay for agonists of the transient receptor potential channel ML3 (TRPML3). [Related pubchem assays: 1526, 1424, 1448 ]; format: functional
[5] = biological target: Sphingosine 1-phosphate receptor 2 (Homo sapiens, UniProt O95136); assay: Dose Response Cell Based Assay for Agonists of the S1P2 Receptor of Purchased Analogues. [Related pubchem assays: 729, 843, 854, 736 ]; format: functional
NADPH oxidase 1 [6] = biological target: T2, NADPH oxidase 1 (Homo sapiens, UniProt Q9Y5S8); format: functional, cell-based
T2 sequence (Q9Y5S8 whole entry): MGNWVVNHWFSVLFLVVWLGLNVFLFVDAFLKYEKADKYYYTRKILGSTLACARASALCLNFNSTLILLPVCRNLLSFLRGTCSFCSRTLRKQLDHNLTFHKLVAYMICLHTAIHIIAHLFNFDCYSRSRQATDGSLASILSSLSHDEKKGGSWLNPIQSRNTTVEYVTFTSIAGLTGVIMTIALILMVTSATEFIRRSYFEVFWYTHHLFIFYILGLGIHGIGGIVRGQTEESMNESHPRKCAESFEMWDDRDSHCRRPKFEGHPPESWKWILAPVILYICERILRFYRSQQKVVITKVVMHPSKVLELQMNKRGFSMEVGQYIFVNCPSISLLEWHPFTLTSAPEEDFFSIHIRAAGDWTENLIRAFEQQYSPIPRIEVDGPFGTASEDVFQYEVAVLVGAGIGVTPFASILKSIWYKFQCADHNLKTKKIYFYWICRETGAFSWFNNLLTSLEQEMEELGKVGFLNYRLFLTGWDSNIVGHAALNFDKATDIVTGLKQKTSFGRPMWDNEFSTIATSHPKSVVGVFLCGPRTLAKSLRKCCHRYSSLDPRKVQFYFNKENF

NADPH oxidase 1 [7] = biological target: T2, NADPH oxidase 1; assay: Luminescence-based cell-based dose response assay to identify inhibitors of NADPH oxidase 1 (NOX1).; format: functional
[8] = cytotoxicity in MIN6 insulinoma cells, dose response, cytotoxicity control, cell-based, mouse insulinoma (AID 2122); format: functional;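 note: confirmatory high-throughput counterscreen run to flag cytotoxic compounds; mouse MIN-6 beta cells carrying an insulin promoter eGFP reporter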
[9] = biological target: T3, Rac GTPase-activating protein 1 (Homo sapiens, UniProt Q9H0H5); assay: MgcRacGAP GTPase-activating activity inhibitors, confirmation, biochemical, ADP Hunter fluorescence, primary and confirmatory (AID 624330); format: functional
T3 sequence (Q9H0H5 whole entry): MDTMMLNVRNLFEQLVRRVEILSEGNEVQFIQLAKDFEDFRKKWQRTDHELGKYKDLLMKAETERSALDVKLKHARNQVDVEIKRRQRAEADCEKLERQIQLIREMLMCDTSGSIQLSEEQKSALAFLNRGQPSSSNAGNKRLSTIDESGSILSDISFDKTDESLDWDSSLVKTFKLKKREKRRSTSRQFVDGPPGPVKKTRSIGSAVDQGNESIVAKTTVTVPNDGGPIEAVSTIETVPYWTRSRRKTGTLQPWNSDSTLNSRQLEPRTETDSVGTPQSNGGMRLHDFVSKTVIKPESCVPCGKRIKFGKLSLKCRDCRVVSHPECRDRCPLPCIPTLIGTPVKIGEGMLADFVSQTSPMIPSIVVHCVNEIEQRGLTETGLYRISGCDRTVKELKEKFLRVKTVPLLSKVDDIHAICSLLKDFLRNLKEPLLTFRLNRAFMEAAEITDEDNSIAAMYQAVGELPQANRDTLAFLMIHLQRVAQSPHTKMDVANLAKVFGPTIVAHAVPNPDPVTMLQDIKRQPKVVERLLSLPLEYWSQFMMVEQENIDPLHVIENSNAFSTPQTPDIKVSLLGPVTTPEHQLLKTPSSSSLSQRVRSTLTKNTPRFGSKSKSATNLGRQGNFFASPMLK

[10] = insulin promoter down-regulators in MIN6 cells, imaging, high-content screening, mouse beta cells (AID 1628); format: functional

Sequence of Ion channel NompC (Q7T1G6 whole entry): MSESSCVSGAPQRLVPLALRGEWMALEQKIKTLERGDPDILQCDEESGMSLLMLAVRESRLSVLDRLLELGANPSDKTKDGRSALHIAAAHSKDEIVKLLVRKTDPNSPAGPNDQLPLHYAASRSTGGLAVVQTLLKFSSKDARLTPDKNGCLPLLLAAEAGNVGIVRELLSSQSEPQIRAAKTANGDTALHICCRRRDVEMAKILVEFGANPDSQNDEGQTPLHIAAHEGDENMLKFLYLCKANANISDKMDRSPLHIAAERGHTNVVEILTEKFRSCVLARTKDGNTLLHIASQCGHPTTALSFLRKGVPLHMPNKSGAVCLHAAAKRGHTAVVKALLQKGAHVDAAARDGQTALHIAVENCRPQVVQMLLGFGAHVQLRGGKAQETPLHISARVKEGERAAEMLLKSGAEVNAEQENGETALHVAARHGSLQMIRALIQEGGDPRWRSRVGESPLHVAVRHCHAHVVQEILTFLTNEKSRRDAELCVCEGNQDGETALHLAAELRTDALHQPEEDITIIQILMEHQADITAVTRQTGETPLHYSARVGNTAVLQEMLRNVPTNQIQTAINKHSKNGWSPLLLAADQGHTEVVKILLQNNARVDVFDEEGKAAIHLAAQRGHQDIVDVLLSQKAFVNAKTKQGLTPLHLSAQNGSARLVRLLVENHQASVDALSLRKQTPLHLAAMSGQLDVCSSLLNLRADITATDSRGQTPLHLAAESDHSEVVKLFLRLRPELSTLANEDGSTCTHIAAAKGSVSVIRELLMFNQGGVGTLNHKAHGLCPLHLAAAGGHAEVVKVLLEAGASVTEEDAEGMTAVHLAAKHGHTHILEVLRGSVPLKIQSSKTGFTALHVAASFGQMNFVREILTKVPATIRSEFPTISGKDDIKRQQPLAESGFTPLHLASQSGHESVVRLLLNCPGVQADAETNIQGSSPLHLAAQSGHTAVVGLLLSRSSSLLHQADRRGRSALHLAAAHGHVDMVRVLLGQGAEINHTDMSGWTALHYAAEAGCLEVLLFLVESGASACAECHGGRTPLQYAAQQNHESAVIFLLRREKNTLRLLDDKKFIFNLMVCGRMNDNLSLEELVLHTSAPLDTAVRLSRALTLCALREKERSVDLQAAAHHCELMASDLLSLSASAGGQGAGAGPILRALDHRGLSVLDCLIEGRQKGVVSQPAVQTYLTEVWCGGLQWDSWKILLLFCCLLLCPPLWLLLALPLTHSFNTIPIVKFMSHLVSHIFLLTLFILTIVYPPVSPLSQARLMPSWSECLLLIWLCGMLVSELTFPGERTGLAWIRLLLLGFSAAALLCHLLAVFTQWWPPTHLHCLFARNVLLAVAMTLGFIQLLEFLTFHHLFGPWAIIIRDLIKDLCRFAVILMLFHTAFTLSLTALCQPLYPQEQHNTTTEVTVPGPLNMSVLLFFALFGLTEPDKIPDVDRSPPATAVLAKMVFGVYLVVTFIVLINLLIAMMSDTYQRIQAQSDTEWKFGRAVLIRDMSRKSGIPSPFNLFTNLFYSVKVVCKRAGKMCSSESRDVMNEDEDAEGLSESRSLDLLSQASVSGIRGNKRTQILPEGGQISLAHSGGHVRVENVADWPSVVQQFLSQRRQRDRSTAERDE
Sequence of Mucolipin-3 (Q8TDD5 whole entry): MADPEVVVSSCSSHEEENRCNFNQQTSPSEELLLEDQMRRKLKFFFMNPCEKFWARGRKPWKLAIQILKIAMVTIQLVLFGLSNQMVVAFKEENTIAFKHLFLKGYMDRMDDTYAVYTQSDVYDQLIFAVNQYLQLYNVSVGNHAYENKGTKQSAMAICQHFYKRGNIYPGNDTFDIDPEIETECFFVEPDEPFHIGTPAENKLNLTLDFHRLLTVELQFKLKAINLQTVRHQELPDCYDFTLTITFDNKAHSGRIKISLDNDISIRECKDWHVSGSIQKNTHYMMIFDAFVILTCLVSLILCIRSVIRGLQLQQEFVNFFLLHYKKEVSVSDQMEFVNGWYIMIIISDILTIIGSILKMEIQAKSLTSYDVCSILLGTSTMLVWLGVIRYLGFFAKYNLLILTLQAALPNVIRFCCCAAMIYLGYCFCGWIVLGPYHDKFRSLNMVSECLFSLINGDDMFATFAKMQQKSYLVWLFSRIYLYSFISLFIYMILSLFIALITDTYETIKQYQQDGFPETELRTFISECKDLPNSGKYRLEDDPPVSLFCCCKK
Sequence of Sphingosine 1-phosphate receptor 2 (O95136 whole entry): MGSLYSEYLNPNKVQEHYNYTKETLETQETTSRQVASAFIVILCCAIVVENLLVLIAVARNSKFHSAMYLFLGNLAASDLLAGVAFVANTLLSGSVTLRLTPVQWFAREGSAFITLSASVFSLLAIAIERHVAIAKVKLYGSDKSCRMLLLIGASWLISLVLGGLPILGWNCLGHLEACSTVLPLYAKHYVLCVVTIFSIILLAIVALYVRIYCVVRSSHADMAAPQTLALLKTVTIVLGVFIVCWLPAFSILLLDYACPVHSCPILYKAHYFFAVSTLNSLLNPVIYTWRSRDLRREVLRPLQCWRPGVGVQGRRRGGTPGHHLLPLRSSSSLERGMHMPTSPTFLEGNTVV
Sequence of Galanin receptor type 2 (O43603 whole entry): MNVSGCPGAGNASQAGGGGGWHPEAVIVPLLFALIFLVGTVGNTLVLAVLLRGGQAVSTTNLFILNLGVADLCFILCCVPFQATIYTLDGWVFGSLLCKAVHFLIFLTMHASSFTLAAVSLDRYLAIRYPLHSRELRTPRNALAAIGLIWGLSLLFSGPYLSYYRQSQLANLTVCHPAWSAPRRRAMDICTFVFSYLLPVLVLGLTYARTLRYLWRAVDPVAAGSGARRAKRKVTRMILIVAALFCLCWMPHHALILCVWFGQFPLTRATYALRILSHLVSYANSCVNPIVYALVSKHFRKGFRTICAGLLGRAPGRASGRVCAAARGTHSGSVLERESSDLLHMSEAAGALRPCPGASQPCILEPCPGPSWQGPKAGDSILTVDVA

Q: With `CC(=O)c1c(C)[nH]c(C(=O)OCC(=O)Nc2ccc(Cl)cc2[N+](=O)[O-])c1C` as the compound, how does the AC50 [1] read?
A: Its AC50 is 53.2 µM (active).

Q: And the AC50 (INS1)?
A: Its AC50 is 1.98 µM (active).

Q: What about the IC50 [2] of the same compound?
A: Its IC50 is 6.5 µM (active).

Q: And the AC50 [3]?
A: Its AC50 is 13.6 µM (active).

Q: And the AC50 [4]?
A: The AC50 was 0.325 µM (active).

Q: And the IC50 (Galanin receptor type 2)?
A: The IC50 was > 42 µM (not active).

Q: With `CSc1nsc(SC)c1C(=O)N1CCN(S(=O)(=O)c2ccc(C)cc2)C1C(C)C` (stereo not given) as the compound, how does the EC50 (Ion channel NompC) read?
A: Its EC50 is > 29.9 µM (not active).

Q: And the IC50 (H9c2)?
A: Its IC50 is > 79 µM (inactive).

Q: What about the EC50 (Mucolipin-3) of the same compound?
A: The EC50 was 10.5 µM (not active).

Q: With `COc1ccc(NC(=O)CN(C)CC(=O)c2cc(C)n(Cc3ccccc3)c2C)cc1` as the compound, how does the EC50 [5] read?
A: The EC50 was > 30 µM (not active).

Q: With `COc1ccc2c(c1)Sc1ccccc1N2` as the compound, how does the IC50 (NADPH oxidase 1 [6]) read?
A: Its IC50 is 0.935 µM (active).

Q: What about the IC50 (NADPH oxidase 1 [7]) of the same compound?
A: Its IC50 is > 20 µM (not active).

Q: What about the IC50 [8] of the same compound?
A: The IC50 was 1.63 µM (active).

Q: What about the IC50 [9] of the same compound?
A: Its IC50 is 28.8 µM (active).

Q: What about the IC50 [10] of the same compound?
A: The IC50 was 2.01 µM (active).
